From article PMC4197335, “Cancer-Selective Targeting of the NF-κB Survival Pathway with GADD45β/MKK7 Inhibitors” (Cancer Cell, 2014)

Legend:
GST-hMKK7 = target: T1, GST-hMKK7 (Homo sapiens, UniProt O14733); assay: tryptophan fluorescence quenching analysis; assay type: binding; conditions: DTP3/MKK7 interaction
T1 construct: Full-length human (h)MKK7 was expressed as a protein fused to an N-terminal GST tag (GST-MKK7); made in house
T1 sequence (O14733 1-419): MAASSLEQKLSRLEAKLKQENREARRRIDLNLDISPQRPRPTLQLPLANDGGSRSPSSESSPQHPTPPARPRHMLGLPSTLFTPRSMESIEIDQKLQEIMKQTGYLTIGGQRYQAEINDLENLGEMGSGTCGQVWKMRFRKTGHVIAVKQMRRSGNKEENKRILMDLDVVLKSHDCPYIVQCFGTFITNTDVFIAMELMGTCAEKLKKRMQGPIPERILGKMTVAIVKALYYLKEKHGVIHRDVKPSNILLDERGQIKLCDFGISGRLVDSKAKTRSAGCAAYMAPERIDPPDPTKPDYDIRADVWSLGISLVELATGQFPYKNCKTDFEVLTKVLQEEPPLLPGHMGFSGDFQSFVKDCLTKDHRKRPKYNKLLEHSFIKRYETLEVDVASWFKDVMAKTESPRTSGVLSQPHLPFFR
Procedure: The stoichiometry and KD value of the DTP3/MKK7 interaction were determined by tryptophan fluorescence quenching analysis, after fitting the fluorescence data with a nonlinear regression algorithm, as described by [Williamson (2013)]. Additional details are provided in Supplemental Experimental Procedures, along with a description of the methods used for CD and MALDI-TOF mass spectrometry analyses and the pull-down of MKK7 from cells with DTP3.
Spectrofluorimetric Analyses
The stoichiometry of the interaction of DTP3 with MKK7 was determined by using tryptophan f luorescence quenching analysis. Spectra were acquired with a Cary Eclipse Spectrof luorimeter analyzer (Varian Inc.), equipped with Peltier thermostating system, and a 1- cm quartz cuvette. The analyses were carried out using 1. 25 μM of GST -hMKK7 or GST dissolved in 10 mM of phosphate buff er, pH 7.5, and increasing concentrations of DTP3 or control SCRB D-peptide dissolved in the same buffer. […] The fluorescence values recorded at 333 nm were extracted, transformed to -ΔFluorescence and, then, plotted against the peptide concentration.
Fluorescence data were f itted using a single- site binding model (equation 1): […]
binding, was a highly appropriate model to account for the measured f lorescence trends, resulting in a R square (R2) of 0.985 and a chi square (X2) of 1.436. […]

GADD45β/MKK7 complex = target: T2, GADD45β/MKK7 complex (Homo sapiens, UniProt O14733); assay: ELISA GADD45β/MKK7 competition assay; assay type: binding
T2 construct: Full-length human (h)MKK7 was expressed as a protein fused to an N-terminal GST tag (GST-MKK7); made in house
T2 sequence (O14733 1-419): T1 sequence (O14733 1-419)
From the text: Additional details are provided in Supplemental Experimental Procedures.
(1:1,000) and the HRP chromogenic substrate, o -phenylenediamine (OPD). GST -coated wells wer e […]
The ELISA competition screen used f or the isolation of antagonists of the GADD45β /MKK7 […]
The library deconvolution strategy used for this screen was described previously […]
General information about this type of screens can be found elsewhere […]
Values were expressed as the percentage of inhibition of His6-hGADD45β binding to GST-hMKK7 relative to the binding measured in the absence of […]
Dose-response, ELISA GADD45β /MKK7 competition assays were carried out under similar […]
As part of the SAR analysis and lead optimization process, where appropriate, competitors were tested at a concentration up to 100 nM. In order to determine their stability in biolog ical f luids , peptides were incubated at the concentration of 10 µM in […]
calculated using at least 7 concentrations of peptide and def ined as the mean concentration of peptide […]
the absence of competitor. W here indicated, values were expressed as the percentage of inhibition of His 6 -hGADD45β binding to GST-hMKK7 relative to the binding measured in the absence of competitor.
GST was used as a control in all the experiments. […]
tetrapeptide used as negative control in some of the ELISA and cellular assays was as f ollows: z -DNC, z-T yr -Asp-His-Gln-NH 2 . […]

plasma stability = assay type: in vitro ADME, human
From the text: Pharmacophore Model Building
The pharmacophore predictive
Broad- Panel Kinase Profiling
according to in-house protocols therein.
Pharmacokinetic Anal yses
In vitro pharmacok inetic assays were […]

CC(=O)N[C@H](Cc1ccc(O)cc1)C(=O)N[C@H](CCCNC(=N)N)C(=O)N[C@H](Cc1ccccc1)C(N)=O [DTP3, Ac-YRF-NH2]
Kd (GST-hMKK7): 0.0648 ± 0.00622 µM | IC50 (GADD45β/MKK7 complex; Table S4, read-out: IC50s (ELISA)): 0.00016 µM | inhibition at 0.042 µM (GADD45β/MKK7 complex; read-out: % inhibition of (ELISA)): 94% | plasma stability (human) (plasma stability): > 48 h
